Measurements as given in patent US20260070903A1, “NOVEL PYRIDO[3,4-D]PYRIMIDIN-8-ONE DERIVATIVE HAVING PROTEIN KINASE INHIBITORY ACTIVITY, AND PHARMACEUTICAL COMPOSITION FOR PREVENTING, ALLEVIATING, OR TREATING CANCER, COMPRISING SAME” (KOREA INSTITUTE OF SCIENCE AND TECHNOLOGY, priority 2019, published 2026).
pIC50: −log10 of the molar value.

Columns and labels:
FGFR2 = FGFR2 (Homo sapiens, UniProt P21802); test: Kinase panel biochemical assay, FGFR2; settings: single concentration of 1 μM, read-out: percent inhibition of kinase
Procedure: (§1) As a test compound, Compound No. 55 was used. The percent inhibition of each kinase when treated with the test compound at a single concentration of 1 μM was measured, and the residual enzyme activity values (%) of the kinases were calculated. Kinases whose calculated residual enzyme activity values (%) was 30% or less (i.e., kinases inhibited by 70% or more) are as follows: […]

FRK = FRK (Homo sapiens, UniProt P42685); test: Kinase panel biochemical assay, FRK; settings: single concentration of 1 μM, read-out: percent inhibition of kinase
Procedure: as §1

RIPK3 = RIPK3 (Homo sapiens, UniProt Q9Y572); test: Kinase panel biochemical assay, RIPK3; settings: single concentration of 1 μM, read-out: percent inhibition of kinase
Procedure: as §1

JAK2 = JAK2 (Homo sapiens, UniProt O60674); test: Kinase panel biochemical assay, JAK2; settings: single concentration of 1 μM, read-out: percent inhibition of kinase
Procedure: as §1

ACK1 = ACK1 (Homo sapiens, UniProt Q07912); test: Inhibitory activity against ACK1 kinase (IC50); type: biochemical
Procedure: The inhibitory activities of the compounds of the present disclosure against two kinases, GCK and ACK1, were measured, and the IC50 values thereof were calculated.

c-Src = c-Src (Homo sapiens, UniProt P12931); test: Kinase panel biochemical assay, c-Src; settings: single concentration of 1 μM, read-out: percent inhibition of kinase
Procedure: as §1

EPHA8 = EPHA8 (Homo sapiens, UniProt P29322); test: Kinase panel biochemical assay, EPHA8; settings: single concentration of 1 μM, read-out: percent inhibition of kinase
Procedure: as §1

DDR2 = DDR2 (Homo sapiens, UniProt Q16832); test: Kinase panel biochemical assay, DDR2; settings: single concentration of 1 μM, read-out: percent inhibition of kinase
Procedure: as §1

EPHA7 = EPHA7 (Homo sapiens, UniProt Q15375); test: Kinase panel biochemical assay, EPHA7; settings: single concentration of 1 μM, read-out: percent inhibition of kinase
Procedure: as §1

FGFR4 = FGFR4 (Homo sapiens, UniProt P22455); test: Kinase panel biochemical assay, FGFR4; settings: single concentration of 1 μM, read-out: percent inhibition of kinase
Procedure: as §1

BMX = BMX (Homo sapiens, UniProt P51813); test: Kinase panel biochemical assay, BMX; settings: single concentration of 1 μM, read-out: percent inhibition of kinase
Procedure: as §1

EPHA3 = EPHA3 (Homo sapiens, UniProt P29320); test: Kinase panel biochemical assay, EPHA3; settings: single concentration of 1 μM, read-out: percent inhibition of kinase
Procedure: as §1

ABL2 = ABL2 (Homo sapiens, UniProt P42684); test: Kinase panel biochemical assay, ABL2; settings: single concentration of 1 μM, read-out: percent inhibition of kinase
Procedure: as §1

BLK = BLK (Homo sapiens, UniProt P51451); test: Kinase panel biochemical assay, BLK; settings: single concentration of 1 μM, read-out: percent inhibition of kinase
Procedure: as §1

TIE2 = TIE2 (Homo sapiens, UniProt Q02763); test: Kinase panel biochemical assay, TIE2; settings: single concentration of 1 μM, read-out: percent inhibition of kinase
Procedure: as §1

EPHA6 = EPHA6 (Homo sapiens, UniProt Q9UF33); test: Kinase panel biochemical assay, EPHA6; settings: single concentration of 1 μM, read-out: percent inhibition of kinase
Procedure: as §1

KHS = KHS (Homo sapiens, UniProt Q9Y4K4); test: Kinase panel biochemical assay, KHS; settings: single concentration of 1 μM, read-out: percent inhibition of kinase
Procedure: as §1

PDGFRb = PDGFRb (Homo sapiens, UniProt P09619); test: Kinase panel biochemical assay, PDGFRb; settings: single concentration of 1 μM, read-out: percent inhibition of kinase
Procedure: as §1

YES = YES (Homo sapiens, UniProt P07947); test: Kinase panel biochemical assay, YES; settings: single concentration of 1 μM, read-out: percent inhibition of kinase
Procedure: as §1

CSK = CSK (Homo sapiens, UniProt P41240); test: Kinase panel biochemical assay, CSK; settings: single concentration of 1 μM, read-out: percent inhibition of kinase
Procedure: as §1

FLT1 = FLT1 (Homo sapiens, UniProt P17948); test: Kinase panel biochemical assay, FLT1; settings: single concentration of 1 μM, read-out: percent inhibition of kinase
Procedure: as §1

DDR1 = DDR1 (Homo sapiens, UniProt Q08345); test: Kinase panel biochemical assay, DDR1; settings: single concentration of 1 μM, read-out: percent inhibition of kinase
Procedure: as §1

EPHA2 = EPHA2 (Homo sapiens, UniProt P29317); test: Kinase panel biochemical assay, EPHA2; settings: single concentration of 1 μM, read-out: percent inhibition of kinase
Procedure: as §1

FLT4 = FLT4 (Homo sapiens, UniProt P35916); test: Kinase panel biochemical assay, FLT4; settings: single concentration of 1 μM, read-out: percent inhibition of kinase
Procedure: as §1

GCK = biological target: T1, GCK (Homo sapiens, UniProt Q12851); test: Kinase panel biochemical assay, GCK; settings: single concentration of 1 μM, read-out: percent inhibition of kinase
T1 sequence (Q12851 1-820): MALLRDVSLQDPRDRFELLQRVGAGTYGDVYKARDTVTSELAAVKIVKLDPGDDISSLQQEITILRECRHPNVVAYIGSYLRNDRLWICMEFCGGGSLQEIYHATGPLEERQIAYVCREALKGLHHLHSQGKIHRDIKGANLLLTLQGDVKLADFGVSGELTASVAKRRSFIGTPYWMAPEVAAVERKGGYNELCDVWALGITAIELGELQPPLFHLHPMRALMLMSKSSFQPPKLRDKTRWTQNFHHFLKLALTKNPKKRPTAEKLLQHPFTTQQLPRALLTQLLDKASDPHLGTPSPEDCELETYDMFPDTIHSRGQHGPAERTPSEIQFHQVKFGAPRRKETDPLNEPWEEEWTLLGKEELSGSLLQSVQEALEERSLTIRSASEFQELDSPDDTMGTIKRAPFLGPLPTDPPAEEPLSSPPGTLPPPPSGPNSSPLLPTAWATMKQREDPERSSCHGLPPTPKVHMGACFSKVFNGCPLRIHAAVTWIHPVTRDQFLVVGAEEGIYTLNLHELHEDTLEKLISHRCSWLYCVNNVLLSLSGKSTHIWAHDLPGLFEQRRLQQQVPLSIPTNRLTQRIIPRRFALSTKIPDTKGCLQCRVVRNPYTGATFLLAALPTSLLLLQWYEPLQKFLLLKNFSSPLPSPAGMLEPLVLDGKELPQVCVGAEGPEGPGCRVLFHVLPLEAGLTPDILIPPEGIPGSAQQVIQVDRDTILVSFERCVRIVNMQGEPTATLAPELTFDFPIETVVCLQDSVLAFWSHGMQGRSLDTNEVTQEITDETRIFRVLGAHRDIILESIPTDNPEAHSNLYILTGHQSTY
Procedure: as §1

Ba/F3 (N-Ras G12D) = test: Proliferation inhibitory activity, Ba/F3 N-Ras G12D; type: cell-based; settings: Mus musculus, BaF3
Procedure: The inhibitory activities of the compounds of the present disclosure against the proliferation of the mt-NRAS (G12D) Ba/F3 and OCI-AML3 (mt-NRAS) cell lines were measured and the GI50 values thereof were calculated.

PDGFRa = PDGFRa (Homo sapiens, UniProt P16234); test: Kinase panel biochemical assay, PDGFRa; settings: single concentration of 1 μM, read-out: percent inhibition of kinase
Procedure: as §1

PEAK1 = PEAK1 (Homo sapiens, UniProt Q9H792); test: Kinase panel biochemical assay, PEAK1; settings: single concentration of 1 μM, read-out: percent inhibition of kinase
Procedure: as §1

Chain of FLT1 (P17948 27-1338): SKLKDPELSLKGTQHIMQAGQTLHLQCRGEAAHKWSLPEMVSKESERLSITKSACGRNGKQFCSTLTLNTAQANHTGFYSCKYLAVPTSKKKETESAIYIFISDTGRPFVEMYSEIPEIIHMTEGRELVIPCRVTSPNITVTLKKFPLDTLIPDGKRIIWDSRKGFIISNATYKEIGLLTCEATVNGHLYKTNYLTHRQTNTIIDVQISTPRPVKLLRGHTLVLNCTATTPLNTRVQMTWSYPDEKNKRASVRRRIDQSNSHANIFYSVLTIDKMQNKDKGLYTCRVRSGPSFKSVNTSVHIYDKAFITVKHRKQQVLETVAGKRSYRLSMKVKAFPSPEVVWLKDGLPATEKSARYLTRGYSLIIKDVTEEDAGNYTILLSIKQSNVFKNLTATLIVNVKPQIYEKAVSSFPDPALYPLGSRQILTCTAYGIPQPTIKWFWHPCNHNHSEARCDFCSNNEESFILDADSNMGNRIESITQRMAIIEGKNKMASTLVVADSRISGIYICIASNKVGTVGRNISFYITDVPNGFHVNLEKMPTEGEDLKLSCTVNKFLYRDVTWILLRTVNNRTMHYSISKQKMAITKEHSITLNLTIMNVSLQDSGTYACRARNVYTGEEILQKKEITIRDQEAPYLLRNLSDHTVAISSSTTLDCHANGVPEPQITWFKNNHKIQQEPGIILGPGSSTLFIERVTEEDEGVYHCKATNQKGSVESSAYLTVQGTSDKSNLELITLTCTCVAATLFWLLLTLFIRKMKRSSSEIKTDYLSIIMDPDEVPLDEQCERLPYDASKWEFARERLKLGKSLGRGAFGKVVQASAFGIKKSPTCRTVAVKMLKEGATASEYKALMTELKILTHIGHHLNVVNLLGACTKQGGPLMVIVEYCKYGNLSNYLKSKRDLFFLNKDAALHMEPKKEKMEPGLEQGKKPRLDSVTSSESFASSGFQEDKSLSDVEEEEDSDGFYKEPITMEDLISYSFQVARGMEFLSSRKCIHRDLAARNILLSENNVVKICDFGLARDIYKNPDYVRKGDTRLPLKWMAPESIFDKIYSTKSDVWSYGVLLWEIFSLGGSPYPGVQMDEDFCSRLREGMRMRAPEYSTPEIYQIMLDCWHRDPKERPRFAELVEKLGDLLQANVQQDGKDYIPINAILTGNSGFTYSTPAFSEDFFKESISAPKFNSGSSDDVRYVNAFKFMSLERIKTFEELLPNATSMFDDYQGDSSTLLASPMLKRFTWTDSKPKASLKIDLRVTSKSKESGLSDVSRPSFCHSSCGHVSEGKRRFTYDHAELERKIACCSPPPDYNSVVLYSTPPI
Chain of EPHA8 (P29322 28-1005): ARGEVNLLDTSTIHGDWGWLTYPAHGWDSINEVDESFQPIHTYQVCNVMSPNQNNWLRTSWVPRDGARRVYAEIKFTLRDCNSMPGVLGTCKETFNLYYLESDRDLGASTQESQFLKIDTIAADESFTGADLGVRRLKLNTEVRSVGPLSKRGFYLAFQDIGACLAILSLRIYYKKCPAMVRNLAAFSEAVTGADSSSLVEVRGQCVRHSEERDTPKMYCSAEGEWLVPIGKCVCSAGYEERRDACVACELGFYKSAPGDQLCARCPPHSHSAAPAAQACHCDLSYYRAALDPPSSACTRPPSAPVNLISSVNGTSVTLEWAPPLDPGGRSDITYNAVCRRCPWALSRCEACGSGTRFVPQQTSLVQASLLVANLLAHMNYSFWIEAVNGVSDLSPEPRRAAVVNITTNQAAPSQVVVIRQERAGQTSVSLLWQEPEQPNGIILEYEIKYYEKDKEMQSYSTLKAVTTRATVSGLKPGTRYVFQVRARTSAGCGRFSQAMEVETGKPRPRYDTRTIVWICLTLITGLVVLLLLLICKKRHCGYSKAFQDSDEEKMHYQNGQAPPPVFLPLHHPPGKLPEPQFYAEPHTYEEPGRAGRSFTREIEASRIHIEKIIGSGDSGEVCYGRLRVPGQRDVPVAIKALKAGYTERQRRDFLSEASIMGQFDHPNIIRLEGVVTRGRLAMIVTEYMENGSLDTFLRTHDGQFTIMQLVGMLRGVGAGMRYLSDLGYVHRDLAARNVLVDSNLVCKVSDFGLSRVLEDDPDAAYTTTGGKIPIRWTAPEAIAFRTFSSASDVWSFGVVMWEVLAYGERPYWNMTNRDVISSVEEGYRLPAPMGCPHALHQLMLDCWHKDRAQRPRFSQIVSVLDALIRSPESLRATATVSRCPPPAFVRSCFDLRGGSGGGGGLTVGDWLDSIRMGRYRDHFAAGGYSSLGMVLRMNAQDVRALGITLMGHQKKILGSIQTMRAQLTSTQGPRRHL
Chain of CSK (P41240 whole entry): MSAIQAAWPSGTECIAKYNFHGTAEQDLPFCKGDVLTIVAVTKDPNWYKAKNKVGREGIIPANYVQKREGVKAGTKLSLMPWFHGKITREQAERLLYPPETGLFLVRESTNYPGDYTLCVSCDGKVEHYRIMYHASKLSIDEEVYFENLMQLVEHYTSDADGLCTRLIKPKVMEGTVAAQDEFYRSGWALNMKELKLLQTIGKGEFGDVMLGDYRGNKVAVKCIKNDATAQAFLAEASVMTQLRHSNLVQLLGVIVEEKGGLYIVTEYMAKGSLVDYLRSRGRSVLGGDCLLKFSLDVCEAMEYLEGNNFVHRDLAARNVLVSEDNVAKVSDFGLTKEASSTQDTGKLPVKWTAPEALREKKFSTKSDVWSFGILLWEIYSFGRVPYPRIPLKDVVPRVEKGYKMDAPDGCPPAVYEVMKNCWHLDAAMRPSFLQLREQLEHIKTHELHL
Chain of ACK1 (Q07912 whole entry): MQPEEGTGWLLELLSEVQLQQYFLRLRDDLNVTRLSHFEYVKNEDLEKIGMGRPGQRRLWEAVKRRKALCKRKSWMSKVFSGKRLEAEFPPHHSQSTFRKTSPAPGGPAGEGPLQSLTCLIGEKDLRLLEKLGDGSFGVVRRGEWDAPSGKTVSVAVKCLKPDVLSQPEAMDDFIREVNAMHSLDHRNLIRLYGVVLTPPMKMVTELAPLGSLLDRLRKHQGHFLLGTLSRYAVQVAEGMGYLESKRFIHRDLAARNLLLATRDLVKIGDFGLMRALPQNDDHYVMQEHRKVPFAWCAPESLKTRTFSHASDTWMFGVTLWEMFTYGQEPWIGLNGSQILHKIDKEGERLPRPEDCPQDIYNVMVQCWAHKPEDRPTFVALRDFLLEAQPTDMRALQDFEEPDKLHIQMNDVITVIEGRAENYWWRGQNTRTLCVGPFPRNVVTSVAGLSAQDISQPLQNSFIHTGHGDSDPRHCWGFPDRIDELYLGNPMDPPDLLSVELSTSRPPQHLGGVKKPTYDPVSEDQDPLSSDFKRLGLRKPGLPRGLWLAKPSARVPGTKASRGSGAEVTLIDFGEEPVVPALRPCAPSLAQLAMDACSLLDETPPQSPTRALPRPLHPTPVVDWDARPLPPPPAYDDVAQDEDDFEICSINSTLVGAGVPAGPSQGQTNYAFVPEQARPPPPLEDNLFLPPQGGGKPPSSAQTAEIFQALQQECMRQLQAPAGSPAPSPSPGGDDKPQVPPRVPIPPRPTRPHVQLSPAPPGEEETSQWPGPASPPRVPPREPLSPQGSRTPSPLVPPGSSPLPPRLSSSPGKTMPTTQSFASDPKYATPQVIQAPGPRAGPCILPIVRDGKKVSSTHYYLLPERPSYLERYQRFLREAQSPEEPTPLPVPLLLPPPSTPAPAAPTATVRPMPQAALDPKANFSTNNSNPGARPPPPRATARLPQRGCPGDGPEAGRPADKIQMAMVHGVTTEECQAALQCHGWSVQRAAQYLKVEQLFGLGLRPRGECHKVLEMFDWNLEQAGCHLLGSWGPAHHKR
Chain of c-Src (P12931 whole entry): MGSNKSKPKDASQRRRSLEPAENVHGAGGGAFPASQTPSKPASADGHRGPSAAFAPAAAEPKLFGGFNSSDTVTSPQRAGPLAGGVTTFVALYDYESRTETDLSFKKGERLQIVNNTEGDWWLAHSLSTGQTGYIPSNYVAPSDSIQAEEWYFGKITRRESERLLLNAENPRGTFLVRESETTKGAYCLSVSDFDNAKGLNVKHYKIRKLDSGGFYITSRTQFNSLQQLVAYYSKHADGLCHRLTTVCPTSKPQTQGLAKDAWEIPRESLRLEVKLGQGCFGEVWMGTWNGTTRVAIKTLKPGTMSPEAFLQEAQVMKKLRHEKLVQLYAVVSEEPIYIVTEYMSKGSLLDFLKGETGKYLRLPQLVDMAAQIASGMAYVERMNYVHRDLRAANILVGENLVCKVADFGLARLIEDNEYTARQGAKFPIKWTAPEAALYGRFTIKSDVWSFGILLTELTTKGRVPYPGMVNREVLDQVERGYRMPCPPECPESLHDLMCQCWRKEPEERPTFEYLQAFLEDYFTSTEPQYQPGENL
Chain of BMX (P51813 whole entry): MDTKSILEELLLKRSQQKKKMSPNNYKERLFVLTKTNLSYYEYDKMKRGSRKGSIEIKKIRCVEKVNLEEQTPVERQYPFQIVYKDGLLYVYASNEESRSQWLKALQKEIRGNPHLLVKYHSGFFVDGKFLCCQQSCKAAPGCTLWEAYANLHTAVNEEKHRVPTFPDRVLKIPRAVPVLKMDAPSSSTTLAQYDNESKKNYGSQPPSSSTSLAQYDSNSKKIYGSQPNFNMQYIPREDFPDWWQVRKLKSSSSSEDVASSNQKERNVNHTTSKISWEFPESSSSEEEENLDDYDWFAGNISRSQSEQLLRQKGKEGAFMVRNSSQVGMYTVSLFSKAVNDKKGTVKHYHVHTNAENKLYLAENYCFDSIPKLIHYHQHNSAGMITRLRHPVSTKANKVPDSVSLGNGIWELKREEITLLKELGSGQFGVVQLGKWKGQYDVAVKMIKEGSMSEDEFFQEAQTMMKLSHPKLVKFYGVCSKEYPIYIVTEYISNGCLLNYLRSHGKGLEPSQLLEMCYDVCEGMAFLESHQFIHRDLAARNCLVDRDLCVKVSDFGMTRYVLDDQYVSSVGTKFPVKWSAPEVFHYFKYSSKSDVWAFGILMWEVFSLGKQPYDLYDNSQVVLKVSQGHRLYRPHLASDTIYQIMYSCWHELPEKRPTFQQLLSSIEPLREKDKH

`Cc1ccc(NC(=O)c2cccc(C(F)(F)F)c2)cc1-c1cc2cnc(N)nc2c(=O)[nH]1` [Compound No. 55, N-(3-(2-amino-8-oxo-7,8-dihydropyrido[3,4-d]pyrimidin-6-yl)-4-methylphenyl)-3-(trifluoromethyl)benzamide] was tested, and the inhibition at 1 µM (FGFR2) was ≥ 70%, the inhibition at 1 µM (FRK) was ≥ 70% and the inhibition at 1 µM (RIPK3) was ≥ 70%. For the same compound, the inhibition at 1 µM (JAK2) was ≥ 70%, the pIC50 (ACK1) was 6.00 to 7.00 and the inhibition at 1 µM (c-Src) was ≥ 70%. The inhibition at 1 µM (EPHA8) was ≥ 70%, the inhibition at 1 µM (DDR2) was ≥ 70% and the inhibition at 1 µM (EPHA7) was ≥ 70%. The inhibition at 1 µM (FGFR4) was ≥ 70%, the inhibition at 1 µM (BMX) was ≥ 70% and the inhibition at 1 µM (EPHA3) was ≥ 70%. The inhibition at 1 µM (ABL2) was ≥ 70%, the inhibition at 1 µM (BLK) was ≥ 70% and the inhibition at 1 µM (TIE2) was ≥ 70%. For the same compound, the inhibition at 1 µM (EPHA6) was ≥ 70%, the inhibition at 1 µM (KHS) was ≥ 70% and the inhibition at 1 µM (PDGFRb) was ≥ 70%. For the same compound, the inhibition at 1 µM (YES) was ≥ 70%, the inhibition at 1 µM (CSK) was ≥ 70% and the inhibition at 1 µM (FLT1) was ≥ 70%. The inhibition at 1 µM (DDR1) was ≥ 70%, the inhibition at 1 µM (EPHA2) was ≥ 70% and the inhibition at 1 µM (FLT4) was ≥ 70%. The inhibition at 1 µM (GCK) was ≥ 70%, the GI50 (Ba/F3 (N-Ras G12D)) was < 0.5 µM and the inhibition at 1 µM (PDGFRa) was ≥ 70%. For the same compound, the inhibition at 1 µM (PEAK1) was ≥ 70%.
